Laboratory results published in ChEMBL document CHEMBL1201862, “PubChem BioAssay data set” (2004).
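Following 48 hours of exposure in 96-well plates, responses at five concentrations were used to interpolate endpoints linearly. Abbreviation: GI50, concentration required for 50% inhibition of growth.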 The source made the active and inactive calls. Cut-off read from the data, not from the text of the source: active = GI50 up to about 1.1 µM and inactive = higher.

Columns and labels:
Experiment in all cases: NCI tumour cell line growth inhibition, 48 h
SN12C = tested on: SN12C
COLO 205 = tested on: COLO 205
CAKI-1 = tested on: CAKI-1
SF-295 = tested on: SF-295
OVCAR-8 = tested on: OVCAR-8
MDA-N = tested on: MDA-N
SNB-19 = tested on: SNB-19
DU-145 = tested on: DU-145
SK-OV-3 = tested on: SK-OV-3
MDA-MB-435 = tested on: MDA-MB-435
UO-31 = tested on: UO-31
ACHN = tested on: ACHN
U-251 = tested on: U-251
UACC-257 = tested on: UACC-257
A498 = tested on: A498
OVCAR-5 = tested on: OVCAR-5
Malme-3M = tested on: Malme-3M
NCI-H460 = tested on: NCI-H460
HL-60 = tested on: HL-60
K562 = tested on: K562
NCI-H522 = tested on: NCI-H522
HCT-15 = tested on: HCT-15
UACC-62 = tested on: UACC-62
MOLT-4 = tested on: MOLT-4
HCT-116 = tested on: HCT-116
A549 = tested on: A549
HT-29 = tested on: HT-29
IGROV-1 = tested on: IGROV-1
RPMI-8226 = tested on: RPMI-8226
SF-268 = tested on: SF-268
MDA-MB-231 = tested on: MDA-MB-231
SK-MEL-5 = tested on: SK-MEL-5
SK-MEL-2 = tested on: SK-MEL-2
SF-539 = tested on: SF-539
LOX IMVI = tested on: LOX IMVI
PC-3 = tested on: PC-3
SW-620 = tested on: SW-620
M14 = tested on: M14
NCI-H23 = tested on: NCI-H23
MCF7 = tested on: MCF7
NCI/ADR-RES = tested on: NCI/ADR-RES
KM12 = tested on: KM12
TK-10 = tested on: TK-10
BT-549 = tested on: BT-549
OVCAR-3 = tested on: OVCAR-3
NCI-H226 = tested on: NCI-H226
HCC 2998 = tested on: HCC 2998
786-0 = tested on: 786-0
HOP-92 = tested on: HOP-92
SNB-75 = tested on: SNB-75
CCRF-CEM = tested on: CCRF-CEM
T47D = tested on: T47D
SK-MEL-28 = tested on: SK-MEL-28
OVCAR-4 = tested on: OVCAR-4
SR = tested on: SR
HOP-62 = tested on: HOP-62
EKVX = tested on: EKVX
RXF 393 = tested on: RXF 393

CCc1ccc2nc(-c3ccc(O)cc3)sc2c1
GI50 (SN12C): 14.6 µM (inactive)
GI50 (COLO 205): 15.3 µM (inactive)
GI50 (CAKI-1): 12.4 µM (inactive)
GI50 (SF-295): 16.8 µM (inactive)
GI50 (OVCAR-8): 19.5 µM (inactive)
GI50 (MDA-N): 18.5 µM (inactive)
GI50 (SNB-19): 14.7 µM (inactive)
GI50 (DU-145): 15 µM (inactive)
GI50 (SK-OV-3): 16.7 µM (inactive)
GI50 (MDA-MB-435): 19.2 µM (inactive)
GI50 (UO-31): 11.8 µM (inactive)
GI50 (ACHN): 17.7 µM (inactive)
GI50 (U-251): 17.7 µM (inactive)
GI50 (UACC-257): 12.7 µM (inactive)
GI50 (A498): 18 µM (inactive)
GI50 (OVCAR-5): 15.3 µM (inactive)
GI50 (Malme-3M): 17.3 µM (inactive)
GI50 (NCI-H460): 21.1 µM (inactive)
GI50 (HL-60): 2.96 µM (inactive)
GI50 (K562): 19.6 µM (inactive)
GI50 (NCI-H522): 3.86 µM (inactive)
GI50 (HCT-15): 15.1 µM
GI50 (UACC-62): 12.4 µM (inactive)
GI50 (MOLT-4): 13.6 µM (inactive)
GI50 (HCT-116): 16.7 µM (inactive)
GI50 (A549): 17.9 µM (inactive)
GI50 (HT-29): 16.6 µM (inactive)
GI50 (IGROV-1): 14 µM (inactive)
GI50 (RPMI-8226): 13.9 µM (inactive)
GI50 (SF-268): 17.4 µM (inactive)
GI50 (MDA-MB-231): 13.2 µM (inactive)
GI50 (SK-MEL-5): 17.8 µM (inactive)
GI50 (SK-MEL-2): 16.5 µM (inactive)
GI50 (SF-539): 11.7 µM (inactive)
GI50 (LOX IMVI): 16.3 µM (inactive)
GI50 (PC-3): 12.6 µM (inactive)
GI50 (SW-620): 20.6 µM (inactive)
GI50 (M14): 18.7 µM (inactive)
GI50 (NCI-H23): 16.1 µM (inactive)
GI50 (MCF7): 20.2 µM (inactive)
GI50 (NCI/ADR-RES): 13.5 µM (inactive)
GI50 (KM12): 14.3 µM (inactive)
GI50 (TK-10): 17.9 µM (inactive)
GI50 (BT-549): 16.3 µM (inactive)
GI50 (OVCAR-3): 13.6 µM (inactive)
GI50 (NCI-H226): 13.2 µM (inactive)

CC1(C)C(=O)C2(N)CCC1C2 (stereo unspecified)
GI50 (SN12C): > 100 µM (inactive)
GI50 (COLO 205): > 100 µM (inactive)
GI50 (CAKI-1): > 100 µM (inactive)
GI50 (OVCAR-8): > 100 µM (inactive)
GI50 (MDA-N): > 100 µM (inactive)
GI50 (HCC 2998): > 100 µM (inactive)
GI50 (786-0): > 100 µM (inactive)
GI50 (SNB-19): > 100 µM (inactive)
GI50 (DU-145): > 100 µM (inactive)
GI50 (MDA-MB-435): > 100 µM (inactive)
GI50 (UO-31): > 100 µM (inactive)
GI50 (ACHN): > 100 µM (inactive)
GI50 (U-251): > 100 µM (inactive)
GI50 (UACC-257): > 100 µM (inactive)
GI50 (A498): > 10 µM (inactive)
GI50 (NCI-H460): > 100 µM (inactive)
GI50 (HOP-92): > 100 µM (inactive)
GI50 (SNB-75): > 100 µM (inactive)
GI50 (CCRF-CEM): > 100 µM (inactive)
GI50 (HCT-15): > 100 µM
GI50 (UACC-62): > 100 µM (inactive)
GI50 (HCT-116): > 100 µM (inactive)
GI50 (T47D): > 100 µM (inactive)
GI50 (SK-MEL-28): > 100 µM (inactive)
GI50 (RPMI-8226): > 100 µM (inactive)
GI50 (SF-268): > 100 µM (inactive)
GI50 (MDA-MB-231): > 100 µM (inactive)
GI50 (LOX IMVI): > 100 µM (inactive)
GI50 (NCI-H23): > 100 µM (inactive)
GI50 (NCI/ADR-RES): > 100 µM (inactive)
GI50 (KM12): > 100 µM (inactive)
GI50 (OVCAR-4): > 100 µM (inactive)
GI50 (TK-10): > 100 µM (inactive)
GI50 (BT-549): > 100 µM (inactive)
GI50 (SR): > 100 µM (inactive)
GI50 (NCI-H226): > 100 µM (inactive)

CN1CCN(Cc2ccccc2)CC1CC#N (stereo unspecified)
GI50 (SN12C): > 100 µM (inactive)
GI50 (COLO 205): > 100 µM (inactive)
GI50 (CAKI-1): > 100 µM (inactive)
GI50 (SF-295): > 100 µM (inactive)
GI50 (OVCAR-8): > 100 µM (inactive)
GI50 (MDA-N): > 100 µM (inactive)
GI50 (HCC 2998): > 100 µM (inactive)
GI50 (786-0): > 100 µM (inactive)
GI50 (SNB-19): > 100 µM (inactive)
GI50 (DU-145): > 100 µM (inactive)
GI50 (SK-OV-3): > 100 µM (inactive)
GI50 (MDA-MB-435): > 100 µM (inactive)
GI50 (UO-31): > 100 µM (inactive)
GI50 (ACHN): > 100 µM (inactive)
GI50 (U-251): > 100 µM (inactive)
GI50 (UACC-257): > 100 µM (inactive)
GI50 (A498): > 100 µM (inactive)
GI50 (OVCAR-5): > 100 µM (inactive)
GI50 (Malme-3M): > 100 µM (inactive)
GI50 (NCI-H460): > 100 µM (inactive)
GI50 (HL-60): > 100 µM (inactive)
GI50 (K562): > 100 µM (inactive)
GI50 (SNB-75): > 100 µM (inactive)
GI50 (CCRF-CEM): > 100 µM (inactive)
GI50 (HOP-62): > 100 µM (inactive)
GI50 (HCT-15): > 100 µM
GI50 (UACC-62): > 100 µM (inactive)
GI50 (MOLT-4): > 100 µM (inactive)
GI50 (HCT-116): > 100 µM (inactive)
GI50 (A549): > 100 µM (inactive)
GI50 (HT-29): > 100 µM (inactive)
GI50 (EKVX): > 100 µM (inactive)
GI50 (T47D): > 100 µM (inactive)
GI50 (IGROV-1): > 100 µM (inactive)
GI50 (SK-MEL-28): > 100 µM (inactive)
GI50 (RPMI-8226): > 100 µM (inactive)
GI50 (SF-268): > 100 µM (inactive)
GI50 (MDA-MB-231): > 100 µM (inactive)
GI50 (SK-MEL-5): > 100 µM (inactive)
GI50 (SF-539): > 100 µM (inactive)
GI50 (LOX IMVI): > 100 µM (inactive)
GI50 (SW-620): > 100 µM (inactive)
GI50 (NCI-H23): > 100 µM (inactive)
GI50 (MCF7): > 100 µM (inactive)
GI50 (NCI/ADR-RES): > 100 µM (inactive)
GI50 (RXF 393): > 100 µM (inactive)
GI50 (KM12): > 100 µM (inactive)
GI50 (OVCAR-4): > 100 µM (inactive)
GI50 (TK-10): > 100 µM (inactive)
GI50 (BT-549): > 100 µM (inactive)
GI50 (SR): > 100 µM (inactive)
GI50 (OVCAR-3): > 100 µM (inactive)
GI50 (NCI-H226): > 100 µM (inactive)

O=C1CCCCC/C1=C\c1cccc([N+](=O)[O-])c1
GI50 (SN12C): 45.7 µM (inactive)
GI50 (COLO 205): 51.1 µM (inactive)
GI50 (CAKI-1): 36.1 µM (inactive)
GI50 (SF-295): 23.2 µM (inactive)
GI50 (OVCAR-8): 33 µM (inactive)
GI50 (MDA-N): 53.7 µM (inactive)
GI50 (HCC 2998): 21.2 µM (inactive)
GI50 (786-0): 33.2 µM (inactive)
GI50 (SNB-19): 38.6 µM (inactive)
GI50 (DU-145): 48.2 µM (inactive)
GI50 (SK-OV-3): 79.1 µM (inactive)
GI50 (MDA-MB-435): 32.7 µM (inactive)
GI50 (UO-31): 27.7 µM (inactive)
GI50 (ACHN): 33.3 µM (inactive)
GI50 (U-251): 27.4 µM (inactive)
GI50 (UACC-257): 22.4 µM (inactive)
GI50 (A498): > 100 µM (inactive)
GI50 (OVCAR-5): 46.2 µM (inactive)
GI50 (Malme-3M): 28.5 µM (inactive)
GI50 (NCI-H460): 30.1 µM (inactive)
GI50 (HL-60): 17.7 µM (inactive)
GI50 (K562): 31.9 µM (inactive)
GI50 (SNB-75): 38.2 µM (inactive)
GI50 (CCRF-CEM): 12.2 µM (inactive)
GI50 (HOP-62): 38.9 µM (inactive)
GI50 (UACC-62): 22.5 µM (inactive)
GI50 (MOLT-4): 15.5 µM (inactive)
GI50 (HCT-116): 22.2 µM (inactive)
GI50 (A549): 44.6 µM (inactive)
GI50 (HT-29): 37.2 µM (inactive)
GI50 (EKVX): 33.7 µM (inactive)
GI50 (T47D): 36 µM (inactive)
GI50 (IGROV-1): 19.4 µM (inactive)
GI50 (SK-MEL-28): 38.1 µM (inactive)
GI50 (RPMI-8226): 21.6 µM (inactive)
GI50 (SF-268): 18.5 µM (inactive)
GI50 (MDA-MB-231): 23.8 µM (inactive)
GI50 (SK-MEL-5): 18.4 µM (inactive)
GI50 (SK-MEL-2): 29.6 µM (inactive)
GI50 (SF-539): 21.5 µM (inactive)
GI50 (PC-3): 34.3 µM (inactive)
GI50 (SW-620): 34.5 µM (inactive)
GI50 (M14): 26.5 µM (inactive)
GI50 (MCF7): 48.3 µM (inactive)
GI50 (NCI/ADR-RES): 34.1 µM (inactive)
GI50 (RXF 393): 28.7 µM (inactive)
GI50 (KM12): 25 µM (inactive)
GI50 (TK-10): 33.7 µM (inactive)
GI50 (BT-549): 24.5 µM (inactive)
GI50 (SR): 11.6 µM (inactive)
GI50 (OVCAR-3): 28.8 µM (inactive)
